Experimental data published in BindingDB's records for PubMed 11714872 (Astrazeneca R&D, 2001).

Experiments:
[1] = target: T1, 5-hydroxytryptamine receptor 3A (Rattus norvegicus, UniProt P35563)
T1 sequence (P35563 whole entry): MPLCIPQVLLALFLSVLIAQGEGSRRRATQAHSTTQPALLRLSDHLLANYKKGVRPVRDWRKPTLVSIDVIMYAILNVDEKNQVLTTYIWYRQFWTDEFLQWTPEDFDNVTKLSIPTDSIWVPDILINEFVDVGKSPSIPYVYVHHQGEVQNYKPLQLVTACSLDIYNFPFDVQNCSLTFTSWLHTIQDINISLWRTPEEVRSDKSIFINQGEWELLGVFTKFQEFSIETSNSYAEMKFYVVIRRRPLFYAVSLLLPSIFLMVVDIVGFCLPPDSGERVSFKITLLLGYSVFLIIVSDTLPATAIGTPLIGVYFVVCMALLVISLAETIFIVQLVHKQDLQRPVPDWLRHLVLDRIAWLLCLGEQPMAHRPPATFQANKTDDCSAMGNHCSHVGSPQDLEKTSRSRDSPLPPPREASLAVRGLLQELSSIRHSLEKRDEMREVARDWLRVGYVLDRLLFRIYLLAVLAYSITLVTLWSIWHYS

[2] = target: 5-hydroxytryptamine receptor 7 (Rattus norvegicus, UniProt P32305)
[3] = target: 5-hydroxytryptamine receptor 2A (Rattus norvegicus, UniProt P14842)
[4] = target: T2, 5-hydroxytryptamine receptor 2C (Rattus norvegicus, UniProt P08909)
T2 sequence (P08909 whole entry): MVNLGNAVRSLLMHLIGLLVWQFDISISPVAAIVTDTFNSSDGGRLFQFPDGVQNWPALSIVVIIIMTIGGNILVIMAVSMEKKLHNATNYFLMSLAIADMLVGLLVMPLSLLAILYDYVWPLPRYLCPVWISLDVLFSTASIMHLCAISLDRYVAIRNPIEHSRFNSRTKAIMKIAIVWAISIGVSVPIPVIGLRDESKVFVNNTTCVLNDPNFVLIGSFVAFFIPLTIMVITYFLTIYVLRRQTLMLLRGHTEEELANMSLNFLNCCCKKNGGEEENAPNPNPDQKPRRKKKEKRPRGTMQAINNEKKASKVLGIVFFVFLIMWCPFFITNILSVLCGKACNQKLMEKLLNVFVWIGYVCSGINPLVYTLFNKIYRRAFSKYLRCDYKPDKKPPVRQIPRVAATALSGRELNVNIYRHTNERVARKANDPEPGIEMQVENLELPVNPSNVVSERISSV

[5] = target: T3, 5-hydroxytryptamine receptor 1A (Rattus norvegicus, UniProt P19327)
T3 sequence (P19327 whole entry): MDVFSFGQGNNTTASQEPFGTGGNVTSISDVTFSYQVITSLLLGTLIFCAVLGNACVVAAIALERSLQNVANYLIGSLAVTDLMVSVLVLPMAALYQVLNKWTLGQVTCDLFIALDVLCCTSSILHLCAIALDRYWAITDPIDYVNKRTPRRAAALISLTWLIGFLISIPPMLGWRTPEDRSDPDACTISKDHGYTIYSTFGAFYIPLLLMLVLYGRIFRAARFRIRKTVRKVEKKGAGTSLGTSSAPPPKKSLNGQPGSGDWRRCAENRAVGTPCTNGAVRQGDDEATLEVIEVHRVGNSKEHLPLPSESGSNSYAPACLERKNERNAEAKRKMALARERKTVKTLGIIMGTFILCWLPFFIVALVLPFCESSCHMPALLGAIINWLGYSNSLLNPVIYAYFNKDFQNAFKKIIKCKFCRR

[6] = target: 5-hydroxytryptamine receptor 6 (Rattus norvegicus, UniProt P31388)
[7] = target: 5-hydroxytryptamine receptor 1B (Bos mutus, UniProt L8IGV0)
[8] = target: Sodium-dependent serotonin transporter (Rattus norvegicus, UniProt P31652)
Sodium-dependent serotonin transporter, sequence (P31652 whole entry): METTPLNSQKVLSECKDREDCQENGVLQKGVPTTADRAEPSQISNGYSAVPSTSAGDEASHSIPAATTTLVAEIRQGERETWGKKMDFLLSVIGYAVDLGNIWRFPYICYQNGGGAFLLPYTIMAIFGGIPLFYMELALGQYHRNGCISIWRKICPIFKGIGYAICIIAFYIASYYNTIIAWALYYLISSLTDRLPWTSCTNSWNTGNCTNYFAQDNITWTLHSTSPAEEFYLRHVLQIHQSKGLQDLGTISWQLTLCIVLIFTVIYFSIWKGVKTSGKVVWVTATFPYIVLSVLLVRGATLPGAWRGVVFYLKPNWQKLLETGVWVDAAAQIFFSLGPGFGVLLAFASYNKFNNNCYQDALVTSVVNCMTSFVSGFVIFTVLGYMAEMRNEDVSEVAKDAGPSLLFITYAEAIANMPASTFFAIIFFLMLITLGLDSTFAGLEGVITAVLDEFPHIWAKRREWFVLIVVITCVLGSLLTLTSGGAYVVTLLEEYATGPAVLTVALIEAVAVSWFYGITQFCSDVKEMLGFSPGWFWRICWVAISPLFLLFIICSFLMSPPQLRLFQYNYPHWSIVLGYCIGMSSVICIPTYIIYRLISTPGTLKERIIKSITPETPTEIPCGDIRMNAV

5-hydroxytryptamine receptor 2A, sequence (P14842 whole entry): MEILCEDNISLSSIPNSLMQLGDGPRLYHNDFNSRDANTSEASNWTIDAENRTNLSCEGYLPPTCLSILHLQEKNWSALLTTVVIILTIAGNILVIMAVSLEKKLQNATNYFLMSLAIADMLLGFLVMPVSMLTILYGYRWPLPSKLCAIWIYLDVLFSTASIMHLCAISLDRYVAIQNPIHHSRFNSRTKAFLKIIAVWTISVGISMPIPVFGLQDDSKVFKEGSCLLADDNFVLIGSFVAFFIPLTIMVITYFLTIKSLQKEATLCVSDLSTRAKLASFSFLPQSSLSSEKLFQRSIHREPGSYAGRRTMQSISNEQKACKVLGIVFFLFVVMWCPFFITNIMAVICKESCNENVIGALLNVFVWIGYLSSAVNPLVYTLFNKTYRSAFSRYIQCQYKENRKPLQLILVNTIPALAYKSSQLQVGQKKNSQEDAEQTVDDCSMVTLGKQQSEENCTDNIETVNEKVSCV
5-hydroxytryptamine receptor 6, sequence (P31388 whole entry): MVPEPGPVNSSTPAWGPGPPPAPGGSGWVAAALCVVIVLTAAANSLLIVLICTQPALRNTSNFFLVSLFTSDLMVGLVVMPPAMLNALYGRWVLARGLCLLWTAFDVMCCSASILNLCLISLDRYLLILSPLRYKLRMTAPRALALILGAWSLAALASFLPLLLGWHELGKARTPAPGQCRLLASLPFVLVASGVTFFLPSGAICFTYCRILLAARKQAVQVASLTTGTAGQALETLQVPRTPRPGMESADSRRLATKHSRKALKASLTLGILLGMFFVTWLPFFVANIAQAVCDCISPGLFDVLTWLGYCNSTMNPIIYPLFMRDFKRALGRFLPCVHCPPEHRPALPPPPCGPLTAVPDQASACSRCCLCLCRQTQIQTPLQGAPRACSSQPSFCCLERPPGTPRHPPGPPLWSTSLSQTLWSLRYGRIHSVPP
5-hydroxytryptamine receptor 7, sequence (P32305 whole entry): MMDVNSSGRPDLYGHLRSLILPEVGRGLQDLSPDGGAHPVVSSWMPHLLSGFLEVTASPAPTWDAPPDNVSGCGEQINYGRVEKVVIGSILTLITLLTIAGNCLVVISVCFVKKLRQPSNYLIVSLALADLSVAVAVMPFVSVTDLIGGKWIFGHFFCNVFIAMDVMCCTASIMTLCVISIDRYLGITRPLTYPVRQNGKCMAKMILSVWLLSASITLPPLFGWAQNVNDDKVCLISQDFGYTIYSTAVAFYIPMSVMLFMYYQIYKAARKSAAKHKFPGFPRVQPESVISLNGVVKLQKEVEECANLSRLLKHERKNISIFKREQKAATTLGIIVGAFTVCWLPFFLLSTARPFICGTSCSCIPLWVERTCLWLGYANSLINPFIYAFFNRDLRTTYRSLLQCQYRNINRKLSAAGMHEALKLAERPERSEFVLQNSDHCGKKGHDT
5-hydroxytryptamine receptor 1B, sequence (L8IGV0 whole entry): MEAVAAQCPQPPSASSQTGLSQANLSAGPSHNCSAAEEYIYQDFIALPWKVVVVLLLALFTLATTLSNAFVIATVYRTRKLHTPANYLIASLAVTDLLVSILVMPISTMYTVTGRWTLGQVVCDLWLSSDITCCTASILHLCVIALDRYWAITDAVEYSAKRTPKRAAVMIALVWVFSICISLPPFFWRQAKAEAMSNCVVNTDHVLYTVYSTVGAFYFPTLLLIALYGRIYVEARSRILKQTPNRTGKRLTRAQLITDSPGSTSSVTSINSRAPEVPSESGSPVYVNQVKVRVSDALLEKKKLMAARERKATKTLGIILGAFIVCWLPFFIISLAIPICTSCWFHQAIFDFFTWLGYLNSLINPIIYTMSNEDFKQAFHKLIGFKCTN

| Compound | Ki [1] [nM] | Ki [2] [nM] | Ki [3] [nM] | Ki [4] [nM] | Ki [5] [nM] | Ki [6] [µM] | Ki [7] [nM] | Ki [8] [µM] |
| --- | --- | --- | --- | --- | --- | --- | --- | --- |
| CCCN(C(C)C)[C@H]1COc2cccc(C(=O)NC(C)C)c2C1 [(R)-N-Isopropyl-3-[isopropyl(propyl)amino]-3,4-dihydro-2H-1-benzopyran-5-carboxamide] | 500 | 240 | > 10000 | 500 | 4.5 | > 10 | 1400 |  |
| CCCN(C(C)C)[C@H]1COc2cccc(C(N)=O)c2C1 [(R)-3-[Isopropyl(propyl)amino]-3,4-dihydro-2H-1-benzopyran-5-carboxamide] | 500 | 88 | 1000 | 500 | 0.26 | > 10 |  | > 10 |
